Article PMC3833348 (MedChemComm, 2013)

Assays:
[1] = biological target: T1, P-gp (Homo sapiens, UniProt P08183); experiment: Inhibition of P-gp-mediated efflux of NBD-Aba in hCMEC/D3 cells; format: cell-based
[2] = Solubility in aqueous buffer; format: physicochemical; conditions: as compared to Aba-C10
[3] = biological target: T1, P-gp; experiment: Substrate accumulation assays in MCF-7/DX1 cells; format: cell-based
[4] = test system: P-gp; conditions: cited from earlier work

T1 sequence (P08183 whole entry): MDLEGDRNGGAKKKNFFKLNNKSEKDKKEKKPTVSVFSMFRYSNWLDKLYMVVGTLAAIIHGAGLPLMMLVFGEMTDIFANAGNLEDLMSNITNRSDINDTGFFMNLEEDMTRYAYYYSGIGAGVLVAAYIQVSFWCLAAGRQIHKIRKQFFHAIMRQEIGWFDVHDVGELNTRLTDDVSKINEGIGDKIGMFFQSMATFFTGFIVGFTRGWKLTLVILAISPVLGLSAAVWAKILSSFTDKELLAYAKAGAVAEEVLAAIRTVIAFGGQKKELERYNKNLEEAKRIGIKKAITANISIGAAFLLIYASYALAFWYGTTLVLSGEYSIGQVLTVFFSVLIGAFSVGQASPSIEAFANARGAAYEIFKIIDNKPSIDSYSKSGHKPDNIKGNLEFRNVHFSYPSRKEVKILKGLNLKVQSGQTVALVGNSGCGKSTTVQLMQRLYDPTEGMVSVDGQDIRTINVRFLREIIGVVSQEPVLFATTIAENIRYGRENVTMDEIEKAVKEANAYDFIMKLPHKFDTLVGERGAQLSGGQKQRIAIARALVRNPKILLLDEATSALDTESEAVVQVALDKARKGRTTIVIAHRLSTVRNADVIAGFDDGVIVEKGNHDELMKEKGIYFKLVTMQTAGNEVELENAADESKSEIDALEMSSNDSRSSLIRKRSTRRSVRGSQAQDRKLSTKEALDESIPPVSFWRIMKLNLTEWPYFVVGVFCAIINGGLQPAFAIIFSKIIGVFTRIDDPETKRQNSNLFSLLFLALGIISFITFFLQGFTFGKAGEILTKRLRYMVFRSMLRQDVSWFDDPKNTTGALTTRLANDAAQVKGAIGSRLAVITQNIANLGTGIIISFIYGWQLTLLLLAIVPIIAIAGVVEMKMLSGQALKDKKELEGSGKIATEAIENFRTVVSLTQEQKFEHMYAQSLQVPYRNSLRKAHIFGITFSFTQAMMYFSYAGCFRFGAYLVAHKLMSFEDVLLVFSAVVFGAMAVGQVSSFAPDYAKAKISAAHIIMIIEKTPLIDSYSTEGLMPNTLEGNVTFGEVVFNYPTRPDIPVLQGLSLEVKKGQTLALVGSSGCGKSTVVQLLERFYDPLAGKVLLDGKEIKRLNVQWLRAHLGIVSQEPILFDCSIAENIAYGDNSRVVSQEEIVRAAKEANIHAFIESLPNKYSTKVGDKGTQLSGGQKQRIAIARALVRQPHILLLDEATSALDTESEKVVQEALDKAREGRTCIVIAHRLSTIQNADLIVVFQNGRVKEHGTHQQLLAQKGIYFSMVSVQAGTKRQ

Nc1nc(NC2CC2)c2ncn([C@H]3C=C[C@@H](COC(=O)CCCCCCCCCCC(=O)OC[C@@H]4C=C[C@H](n5cnc6c(NC7CC7)nc(N)nc65)C4)C3)c2n1 [Aba-C10]
Fold more potent than monomeric abacavir [1]: greater than 500 fold

Nc1nc(NC2CC2)c2ncn([C@H]3C=C[C@@H](COC(=O)CCCCCCCCC(=O)OC[C@@H]4C=C[C@H](n5cnc6c(NC7CC7)nc(N)nc65)C4)C3)c2n1 [Aba-C8]
Solubility in aqueous buffer [2]: more favorable solubility | Fold decrease of potency in MCF-7/DX1 cells versus 12D7-MDR ([3]; NBD-Aba as substrate): ~6 fold | Fold decrease of potency in MCF-7/DX1 cells versus hCMEC/D3 ([3]; NBD-Aba as substrate): about 3 fold | Inhibition of efflux of each of the substrates in MCF-7/DX1 cells ([3]; substrates BODIPY-prazosin, doxorubicin, [3H]-daunomycin and NBD-Aba): effectively inhibit efflux

Nc1nc(NC2CC2)c2ncn([C@H]3C=C[C@@H](CO)C3)c2n1 [abacavir, reference compound]
Fold increase in brain levels, P-gp-null mice versus wild-type mice [4]: 20 fold | Effect on transport in MCF-7/DX1 cells ([3]; up to a concentration of 100 µM, data not shown): no effect on transport
